The results in this text go back to patent US12624034B2, “Non-covalent modifiers of AKT1 and uses thereof” (Terremoto Biosciences, Inc., priority 2023, dated 2026).

Where two headings read alike, the source gives them in different places.

Assay [1] addresses T1, AKT1 WT (Homo sapiens, UniProt P31749).
T1 construct: expressed in transfected cells; host or cells: HEK293
Put plainly: Live cell AKT1 WT target engagement by NanoBRET competitive probe displacement in HEK293 cells. Type of assay: binding. Conditions: 2 h at 37° C., read-out: AKT1 WT IC50.

Assay [2] concerns the target T2, AKT2 (Homo sapiens, UniProt P31751).
T2 construct: expressed in transfected cells; host or cells: HEK293
Put plainly: Live cell AKT2 target engagement by NanoBRET competitive probe displacement in HEK293 cells. The class given is binding. The settings on record: 2 h at 37° C., read-out: AKT2 IC50.

For assay [3], the target named is T3, AKT1 E17K (Homo sapiens, UniProt P31749, E17K).
T3 construct: expressed in transfected cells; host or cells: HEK293
Put plainly: Live cell AKT1 E17K target engagement by NanoBRET competitive probe displacement in HEK293 cells. Type of assay: binding. The settings on record: 2 h at 37° C. Put shortly:
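HEK293 cells transiently expressing kinase–NanoLuciferase fusions (overnight transfection) were exposed to serially diluted compound plus a fluorescent ATP-competitive tracer at ~EC50 for 2 h at 37° C. After substrate and extracellular luciferase inhibitor, emission at 460 and 600 nm gave the BRET ratio (E600/E460); IC50 from Hill fit.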

The test system of assay [4] is LAPC4 prostate cancer cells, which express the AKT1 E17K allele. Kind of assay: Antiproliferative effects in LAPC4 cells (CellTiter Glo, 72 h). Type of assay: cell-based. Conditions: Homo sapiens, LAPC4, 72 h, read-out: LAPC4 proliferation IC50. The method, boiled down: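 LAPC4 cells were cultured in IMDM with 12% FBS and 1% P/S, seeded at 1,000 cells/well and exposed to compound dilutions in DMSO. After 72 h, intracellular ATP was measured by CellTiter Glo luminescence, and IC50 values came from a log(inhibitor) vs. response Hill fit.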

Where [5] appears, read: NanoBRET live cell target engagement, HEK293 cells.
[6] abbreviates: NanoBRET competitive probe displacement, live HEK293 cells.

T2 sequence (P31751 whole entry): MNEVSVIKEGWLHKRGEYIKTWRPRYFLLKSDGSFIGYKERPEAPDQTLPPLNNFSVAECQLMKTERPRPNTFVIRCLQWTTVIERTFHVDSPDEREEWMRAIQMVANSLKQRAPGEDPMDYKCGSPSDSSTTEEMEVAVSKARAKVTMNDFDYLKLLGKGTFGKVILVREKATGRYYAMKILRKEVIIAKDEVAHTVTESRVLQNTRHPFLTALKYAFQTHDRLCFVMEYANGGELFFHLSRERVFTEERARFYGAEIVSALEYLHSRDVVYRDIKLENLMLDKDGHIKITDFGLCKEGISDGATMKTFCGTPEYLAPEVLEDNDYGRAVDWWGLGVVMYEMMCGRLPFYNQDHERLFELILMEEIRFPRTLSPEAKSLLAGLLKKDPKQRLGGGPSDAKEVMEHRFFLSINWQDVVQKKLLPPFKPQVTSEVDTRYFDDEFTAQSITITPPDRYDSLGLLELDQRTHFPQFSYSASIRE
T1 sequence (P31749 whole entry): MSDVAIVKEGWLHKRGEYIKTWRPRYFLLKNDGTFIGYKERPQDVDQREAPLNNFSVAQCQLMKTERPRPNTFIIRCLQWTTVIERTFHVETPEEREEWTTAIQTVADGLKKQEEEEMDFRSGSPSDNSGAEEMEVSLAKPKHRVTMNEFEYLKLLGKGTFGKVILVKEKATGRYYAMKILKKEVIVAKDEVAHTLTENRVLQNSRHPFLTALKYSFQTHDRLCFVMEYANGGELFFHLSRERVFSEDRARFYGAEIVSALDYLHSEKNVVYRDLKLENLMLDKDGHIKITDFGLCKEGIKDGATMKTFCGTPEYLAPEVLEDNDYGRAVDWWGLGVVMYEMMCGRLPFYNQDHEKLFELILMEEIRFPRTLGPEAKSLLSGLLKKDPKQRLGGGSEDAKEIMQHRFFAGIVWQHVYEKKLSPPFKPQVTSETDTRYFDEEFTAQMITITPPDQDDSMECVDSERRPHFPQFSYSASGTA
T3 sequence (P31749 whole entry E17K): as the sequence (P31749 whole entry) above, with E17K counted along it

As for `Nc1ncccc1-c1nc2ccc(-n3cccn3)nc2n1-c1ccc2c(c1)CC[C@@H]2NC(=O)c1ccc2nccn2c1` [Compound 17, (S)—N-(5-(2-(2-aminopyridin-3-yl)-5-(1H-pyrazol-1-yl)-3H-imidazo[4,5-b]pyridin-3-yl)-2,3-dihydro-1H-inden-1-yl)imidazo[1,2-a]pyridine-6-carboxamide], the IC50 in assay [1] (setting [5]) amounted to 0.00578 µM; in assay [2] (setting [5]) it was 0.0906 µM; in assay [3] (setting [5]), 0.0412 µM; in assay [4], 1.02 µM.

On to `Nc1ncccc1-c1nc2ccc(-n3ccc(N4CCOCC4)n3)nc2n1-c1ccc2c(c1)CC[C@@H]2NC1CCN(C(=O)C2CC2)CC1` [Compound 488], for which the IC50 worked out at 0.00799 µM in assay [1] (setting [6]), 0.098 µM in assay [2] (setting [6]), 0.0306 µM in assay [3] (setting [6]) and 0.624 µM in assay [4].

Regarding `COc1ccc(C(=O)N[C@H]2CCc3cc(-n4c(-c5cccnc5N)nc5ccc(-n6cccn6)nc54)ccc32)cc1` [Compound 12, (S)—N-(5-(2-(2-aminopyridin-3-yl)-5-(1H-pyrazol-1-yl)-3H-imidazo[4,5-b]pyridin-3-yl)-2,3-dihydro-1H-inden-1-yl)-4-methoxybenzamide], the IC50 was 0.00756 µM in assay [1] (setting [5]), 0.0381 µM in assay [2] (setting [5]), 0.0105 µM in assay [3] (setting [5]) and 0.74 µM in assay [4].

Regarding `Nc1ncccc1-c1nc2ccc(-n3cccn3)nc2n1-c1ccc2c(c1)CC[C@@H]2N` [Example 2, (S)-3-(3-(1-amino-2,3-dihydro-1H-inden-5-yl)-5-(1H-pyrazol-1-yl)-3H-imidazo[4,5-b]pyridin-2-yl)pyridin-2-amine], the IC50 in assay [1] (setting [5]) was 0.0619 µM; in assay [2] (setting [5]), 0.858 µM; in assay [3] (setting [5]), greater than 1 µM; in assay [4], 8.98 µM.

For the molecule `Cc1ccc(C(=O)N[C@H]2CCc3cc(-n4c(-c5ccccc5F)nc5ccc(-n6cccn6)nc54)ccc32)cn1` [Compound 401], the IC50 stood at 0.0109 µM in assay [1] (setting [6]), 2.73 µM in assay [2] (setting [6]), 0.108 µM in assay [3] (setting [6]) and 4.21 µM in assay [4].

For the molecule `Nc1ncccc1-c1nc2ccc(-n3cccn3)nc2n1-c1ccc2c(c1)CC[C@@H]2NC(=O)c1ccnc2sccc12` [Compound 363], the IC50 in assay [1] (setting [5]) was 0.00774 µM; in assay [2] (setting [5]), 0.0672 µM; in assay [3] (setting [5]) it was 0.0579 µM; in assay [4], 1.42 µM.

Turning to `COc1cc(C(=O)N[C@H]2CCc3cc(-n4c(-c5cccnc5N)nc5ccc(-n6nccn6)nc54)ccc32)cnn1` [Compound 426], the IC50 in assay [1] (setting [6]) is 0.00317 µM; in assay [2] (setting [6]) it was 0.36 µM; in assay [3] (setting [6]), 0.059 µM; in assay [4], 1.51 µM.

As to `Nc1ncccc1-c1nc2ccc(-c3ccccc3)nc2n1-c1ccc2c(c1)CC[C@@H]2NC1CCN(C(=O)C2CC2)CC1` [Compound 391], the IC50 in assay [1] (setting [5]) worked out at 0.0197 µM; in assay [2] (setting [5]), 0.103 µM; in assay [3] (setting [5]), 0.257 µM; in assay [4] it was 2.25 µM.

With `CCOC(=O)N1CCC(N[C@H]2CCc3cc(-n4c(-c5cccnc5N)nc5ccc(-n6cccn6)nc54)ccc32)CC1` [Compound 289], the IC50 amounted to 0.0699 µM in assay [1] (setting [5]), 2.99 µM in assay [2] (setting [5]), 0.283 µM in assay [3] (setting [5]) and 4.78 µM in assay [4].

Regarding `COc1ncc(C(=O)N[C@H]2CCc3cc(-n4c(-c5cccnc5N)nc5ccc(-n6cccn6)nc54)ccc32)cn1` [Compound 23, (S)—N-(5-(2-(2-aminopyridin-3-yl)-5-(1H-pyrazol-1-yl)-3H-imidazo[4,5-b]pyridin-3-yl)-2,3-dihydro-1H-inden-1-yl)-2-methoxypyrimidine-5-carboxamide], the IC50 in assay [1] (setting [5]) came out at 0.00461 µM; in assay [2] (setting [5]), 0.0466 µM; in assay [3] (setting [5]), 0.39 µM; in assay [4] it was 1.2 µM.

Regarding `Nc1ncccc1-c1nc2ccc(-n3cccn3)nc2n1-c1ccc2c(c1)CC[C@@H]2NC(=O)c1ccnc2c1OCCO2` [Compound 356], the IC50 was 0.0523 µM in assay [1] (setting [5]), 1.07 µM in assay [2] (setting [5]), greater than 1 µM in assay [3] (setting [5]) and greater than 10 µM in assay [4].

In the case of `Cc1cc(C(=O)N[C@H]2CCc3cc(-n4c(-c5cccnc5N)nc5ccc(-n6cccn6)nc54)ccc32)cnc1C(F)F` [Compound 60, (S)—N-(5-(2-(2-aminopyridin-3-yl)-5-(1H-pyrazol-1-yl)-3H-imidazo[4,5-b]pyridin-3-yl)-2,3-dihydro-1H-inden-1-yl)-6-(difluoromethyl)-5-methylnicotinamide], the IC50 is 0.0025 µM in assay [1] (setting [5]), 0.0315 µM in assay [2] (setting [5]), 0.0621 µM in assay [3] (setting [5]) and 0.741 µM in assay [4].

As for `O=C(N[C@H]1CCc2cc(-n3c(-c4ccccc4)nc4ccc(-c5ccn(C6CC6)n5)nc43)ccc21)c1ccc(C(F)F)nc1` [Compound 432], the IC50 in assay [1] (setting [6]) worked out at 0.0146 µM; in assay [2] (setting [6]) it was 1.45 µM; in assay [3] (setting [6]), 0.145 µM; in assay [4] it was 3.5 µM.

As to `Nc1ncccc1-c1nc2ccc(-n3cccn3)nc2n1-c1ccc2c(c1)CC(F)[C@@H]2NC1CCN(C(=O)C2CC2)CC1` (single isomer, unassigned) [Compound 386], the IC50 in assay [1] (setting [5]) was 0.0176 µM; in assay [2] (setting [5]) it was 1.31 µM; in assay [3] (setting [5]) it was greater than 0.487 µM; in assay [4], greater than 7.16 µM.

In the case of `CC(C)(C)c1cn([C@H]2CCc3cc(-n4c(-c5cccnc5N)nc5ccc(-n6cccn6)nc54)ccc32)nn1` [Compound 320], the IC50 in assay [1] (setting [5]) is 0.0837 µM; in assay [2] (setting [5]), 2.33 µM; in assay [3] (setting [5]), 0.472 µM; in assay [4], 2.25 µM.

Consider `COc1ccn(-c2ccc3nc(-c4cccnc4N)n(-c4ccc5c(c4)CC[C@@H]5NC4CCN(C(=O)C5CC5)CC4)c3n2)n1` [Compound 440], for which the IC50 in assay [1] (setting [6]) is 0.0243 µM; in assay [2] (setting [6]), 1.75 µM; in assay [3] (setting [6]) it was greater than 1 µM; in assay [4], 5.27 µM.

In the case of `Nc1ncccc1-c1nc2ccc(-n3nccn3)nc2n1-c1ccc2c(c1)CC[C@@H]2NC(=O)c1ccc(C2CC2)nc1` [Compound 491], the IC50 was 0.00537 µM in assay [1] (setting [6]), 0.351 µM in assay [2] (setting [6]), 0.0236 µM in assay [3] (setting [6]) and 0.285 µM in assay [4].

With `COc1cc(C(=O)N[C@H]2CCc3cc(-n4c(-c5cccnc5N)nc5ccc(-n6cccn6)nc54)ccc32)cc(C)n1` [Compound 280], the IC50 in assay [1] (setting [5]) stood at 0.00275 µM; in assay [2] (setting [5]) it was 0.00709 µM; in assay [3] (setting [5]), 0.0337 µM; in assay [4], 0.516 µM.

Take `N#CC1(C(=O)N2CCC(N[C@H]3CCc4cc(-n5c(-c6cccnc6N)nc6ccc(-n7cccn7)nc65)ccc43)CC2)CC1` [Compound 369]: the IC50 in assay [1] (setting [5]) is 0.117 µM; in assay [2] (setting [5]), 5.59 µM; in assay [3] (setting [5]) it was greater than 1 µM; in assay [4], greater than 10 µM.

For `Nc1ncccc1-c1nc2ccc(-n3cccn3)nc2n1-c1ccc2c(c1)CC[C@@H]2NC1CCN(c2ccccn2)C1` (some centres unmarked) [Compound 387], the IC50 in assay [1] (setting [5]) was 0.00948 µM; in assay [2] (setting [5]), 0.351 µM; in assay [3] (setting [5]) it was 0.376 µM; in assay [4], 4.43 µM.

As to `Cc1ncc(F)cc1C(=O)N[C@H]1CCc2cc(-n3c(-c4cccnc4N)nc4ccc(-n5nccn5)nc43)ccc21` [Compound 382], the IC50 was determined as 0.0131 µM in assay [1] (setting [5]), 0.546 µM in assay [2] (setting [5]), 0.0923 µM in assay [3] (setting [5]) and 4.15 µM in assay [4].

In the case of `Nc1ncccc1-c1nc2ccc(-n3cccn3)nc2n1-c1ccc2c(c1)CC[C@@H]2NC1CCN(c2ccccn2)CC1` [Compound 277], the IC50 is 0.0251 µM in assay [1] (setting [5]), 0.486 µM in assay [2] (setting [5]), 0.365 µM in assay [3] (setting [5]) and 2.44 µM in assay [4].

As to `Nc1ncccc1-c1nc2ccc(-n3cccn3)nc2n1-c1ccc2c(c1)CC[C@@H]2NC(=O)c1cnns1` [Compound 399], the IC50 stood at 0.015 µM in assay [1] (setting [6]), 0.656 µM in assay [2] (setting [6]), 0.177 µM in assay [3] (setting [6]) and 2.73 µM in assay [4].

Take `Nc1ncccc1-c1nc2ccc(-n3cccn3)nc2n1-c1ccc2c(c1)CC[C@@H]2NC1CN(c2ccccn2)C1` [Compound 439]: the IC50 in assay [1] (setting [6]) amounted to 0.015 µM; in assay [2] (setting [6]), 0.794 µM; in assay [3] (setting [6]), 0.655 µM; in assay [4], 3.82 µM.

Regarding `COc1ccc(C(=O)N[C@H]2CCc3cc(-n4c(-c5cccnc5N)nc5ccc(-n6cccn6)nc54)ccc32)cn1` [Compound 38, N-[(1S)-5-[2-(2-aminopyridin-3-yl)-5-(pyrazol-1-yl)imidazo[4,5-b]pyridin-3-yl]-2,3-dihydro-1H-inden-1-yl]-6-methoxypyridine-3-carboxamide], the IC50 was determined as 0.00407 µM in assay [1] (setting [5]), 0.019 µM in assay [2] (setting [5]), 0.0256 µM in assay [3] (setting [5]) and 0.585 µM in assay [4].

For `Nc1ncccc1-c1nc2ccc(-n3cccn3)nc2n1-c1ccc2c(c1)CC[C@@H]2NC(=O)c1ccc(C(F)F)nc1` [Compound 18, (S)—N-(5-(2-(2-aminopyridin-3-yl)-5-(1H-pyrazol-1-yl)-3H-imidazo[4,5-b]pyridin-3-yl)-2,3-dihydro-1H-inden-1-yl)-6-(difluoromethyl)nicotinamide], the IC50 was 0.0105 µM in assay [1] (setting [5]), 0.0555 µM in assay [2] (setting [5]), 0.0444 µM in assay [3] (setting [5]) and 0.733 µM in assay [4].
